Assay results reported in patent publication US20120015907A1, “Furopyridine compounds and uses thereof” (NOVARTIS AG, priority 2010, published 2012).

Biological target: T1, HCV polymerase (Hepatitis C virus genotype 1b, UniProt Q9WMX2)
T1 construct: (His)6 (C)
Test: biochemical
Conditions: polymerase assay of Biological Example 1; read-out: NS5B polymerase IC50
Text: A number of assays have been published to assess these activities. A general method that assesses the gross increase of HCV virus in culture was disclosed in U.S. Pat. No. 5,738,985 to Miles et al. In vitro assays have been reported in Ferrari et al. Jnl. of Vir., 73:1649-1654, 1999; Ishii et al., Hepatology, 29:1227-1235, 1999; Lohmann et al., Jnl of Bio. Chem., 274:10807-10815, 1999; and Yamashita et al., Jnl. of Bio. Chem., 273:15479-15486, 1998.
WO 97/12033, filed on Sep. 27, 1996, by Emory University, listing C. Hagedorn and A. Reinoldus as inventors, which claims priority to U.S. Provisional Patent Application Ser. No. 60/004,383, filed on September 1995, described an HCV polymerase assay that can be used to evaluate the activity of the of the compounds described herein. Another HCV polymerase assay has been reported by Bartholomeusz, et al., Hepatitis C Virus (HCV) RNA polymerase assay using cloned HCV non-structural proteins; Antiviral Therapy 1996:1(Supp 4) 18-24.

Row | Compound | IC50
1 | CCc1cc2c(C(=O)NC)c(-c3ccc(F)cc3)oc2nc1N(CCCN1CCN(C(=O)OC(C)(C)C)CC1)S(C)(=O)=O [Example 21.999, tert-butyl 4-(3-(N-(5-ethyl-2-(4-fluorophenyl)-3-(methylcarbamoyl)furo[2,3-b]pyridin-6-yl)methylsulfonamido)propyl)piperazine-1-carboxylate] | 112 nM
2 | 6-{[3-(1,1-Dioxo-tetrahydro-1lambdathiophen-2-yl)-propyl]-methanesulfonyl-amino}-5-ethyl-2-(4-fluoro-phenyl)-furo[2,3-b]pyridine-3-carboxylic acid methylamide [Example 22.99] | 15 nM
3 | CNC(=O)c1c(-c2ccc(C)cc2)oc2nc(N(CCCCCCCCCC(=O)O)S(C)(=O)=O)c(C3CC3)cc12 [Example 29.993, 10-(N-(5-cyclopropyl-3-(methylcarbamoyl)-2-p-tolylfuro[2,3-b]pyridin-6-yl)methylsulfonamido) decanoic acid] | 2 nM
4 | CCc1ccc(-c2oc3nc(N(CCCC(C)(OC)C(=O)O)S(C)(=O)=O)c(C4CC4)cc3c2C(=O)NC)cc1 (centres unmarked) [Example 29.9991, 5-(N-(5-cyclopropyl-2-(4-ethylphenyl)-3-(methylcarbamoyl)furo[2,3-b]pyridin-6-yl)methylsulfonamido)-2-methoxy-2-methylpentanoic acid] | 3 nM
5 | CNC(=O)c1c(-c2ccc(F)cc2)oc2nc(N(CCCC#N)S(C)(=O)=O)c(I)cc12 [Example 18.2, 6-(N-(3-cyanopropyl)methylsulfonamido)-2-(4-fluorophenyl)-5-iodo-N-methylfuro[2,3-b]pyridine-3-carboxamide] | 61 nM
6 | C=CCCN(c1nc2oc(-c3ccc(F)cc3)c(C(=O)NC)c2cc1I)S(C)(=O)=O [Example 18.3, 6-(N-(but-3-enyl)methylsulfonamido)-2-(4-fluorophenyl)-5-iodo-N-methylfuro[2,3-b]pyridine-3-carboxamide] | 103 nM
7 | CCc1cc2c(C(=O)NC)c(-c3ccc(F)cc3)oc2nc1N(CCCOc1ccccc1OC)S(C)(=O)=O [Example 21.92, 5-ethyl-2-(4-fluorophenyl)-6-(N-(3-(2-methoxyphenoxy)propyl)methylsulfonamido)-N-methylfuro[2,3-b]pyridine-3-carboxamide] | 352 nM
8 | C=C(c1cc2c(C(=O)NC)c(-c3ccc(F)cc3)oc2nc1N(C)S(C)(=O)=O)C(F)(F)F [Example 2.5, 2-(4-fluorophenyl)-N-methyl-6-(N-methylmethylsulfonamido)-5-(3,3,3-trifluoroprop-1-en-2-yl)furo[2,3-b]pyridine-3-carboxamide] | 662 nM
9 | CCc1cc2c(C(=O)NC)c(-c3ccc(F)cc3)oc2nc1N(CCCCS(=O)(=O)C(F)(F)F)S(C)(=O)=O [Example 23.97, 5-ethyl-2-(4-fiuorophenyl)-N-methyl-6-(N-(4-(trifluoromethylsulfonyl)butyl)methylsulfonamido) furo[2,3-b]pyridine-3-carboxamide] | 35 nM
10 | CNC(=O)c1c(-c2ccc(C)cc2)oc2nc(N(CCC[C@@H](C)C(=O)N[C@@H](CO)Cc3ccccc3)S(C)(=O)=O)c(C3CC3)cc12 [Example 47.1] | 668 nM
11 | CNC(=O)c1c(-c2ccc(C)cc2)oc2nc(N(CCCC3(C(=O)O)CCN(C(=O)OC(C)(C)C)CC3)S(C)(=O)=O)c(C3CC3)cc12 [Example 29.9996, 1-(tert-butoxycarbonyl)-4-(3-(N-(5-cyclopropyl-3-(methylcarbamoyl)-2-p-tolylfuro[2,3-b]pyridin-6-yl)methylsulfonamido)propyl) piperidine-4-carboxylic acid] | 117 nM
12 | CCc1cc2c(C(=O)NC)c(-c3ccc(F)cc3)oc2nc1N(CCOc1ccccc1C#N)S(C)(=O)=O [Example 21.95, 6-(N-(2-(2-cyanophenoxy)ethyl)methylsulfonamido)-5-ethyl-2-(4-fluorophenyl)-N-methylfuro[2,3-b]pyridine-3-carboxamide] | 119 nM
13 | CNC(=O)c1c(-c2ccc(C)cc2)oc2nc(N(CCCCCCC(=O)O)S(C)(=O)=O)c(C3CC3)cc12 [Example 29.996, 7-(N-(5-cyclopropyl-3-(methylcarbamoyl)-2-p-tolylfuro[2,3-b]pyridin-6-yl)methylsulfonamido) heptanoic acid] | 7 nM
14 | CCc1ccc(-c2oc3nc(N(CCCCCC(=O)O)S(C)(=O)=O)c(C4CC4)cc3c2C(=O)NC)cc1 [Example 29.9, 6-(N-(5-cyclopropyl-2-(4-ethylphenyl)-3-(methylcarbamoyl)furo[2,3-b]pyridin-6-yl)methylsulfonamido) hexanoic acid] | 2 nM
15 | CCc1cc2c(C(=O)NC)c(-c3ccc(F)cc3)oc2nc1N(CCOc1ccc2cccnc2c1)S(C)(=O)=O [Example 22.8, 5-ethyl-2-(4-fluorophenyl)-N-methyl-6-(N-(2-(quinolin-7-yloxy)ethyl)methylsulfonamido)furo[2,3-b]pyridine-3-carboxamide] | 45 nM
16 | CCc1ccc(-c2oc3nc(N(CCCC(C)(COC)C(=O)O)S(C)(=O)=O)c(C4CC4)cc3c2C(=O)NC)cc1 (centres unmarked) [Example 43, 5-(N-(5-Cyclopropyl-2-(4-ethylphenyl)-3-(methylcarbamoyl)furo[2,3-b]pyridin-6-yl)methylsulfonamido)-2-(methoxymethyl)-2-methylpentanoic acid] | 2 nM
17 | CNC(=O)c1c(-c2ccc(C)cc2)oc2nc(N(CCCC3(C(=O)O)CCNCC3)S(C)(=O)=O)c(C3CC3)cc12 [Example 29.99991, 4-(3-(N-(5-cyclopropyl-3-(methylcarbamoyl)-2-p-tolylfuro[2,3-b]pyridin-6-yl)methylsulfonamido)propyl) piperidine-4-carboxylic acid] | 129 nM
18 | CNC(=O)c1c(-c2ccc(F)cc2)oc2nc(N(Cc3cccc(C(N)=O)c3)S(C)(=O)=O)c(I)cc12 [Example 18.8, 6-(N-(3-carbamoylbenzyl)methylsulfonamido)-2-(4-fluorophenyl)-5-iodo-N-methylfuro[2,3-b]pyridine-3-carboxamide] | 51 nM
19 | CNC(=O)c1c(-c2ccc(F)cc2)oc2nc(N(C)S(C)(=O)=O)c(CC3CO3)cc12 (centres unmarked) [Example 12, 2-(4-fluorophenyl)-N-methyl-6-(N-methylmethylsulfonamido)-5-(oxiran-2-ylmethyl)furo[2,3-b]pyridine-3-carboxamide] | 734 nM
20 | CNC(=O)c1c(-c2ccc(C)cc2)oc2nc(N(CCc3ccccc3C(=O)O)S(C)(=O)=O)c(C3CC3)cc12 [Example 45, 2-(2-(N-(5-cyclopropyl-3-(methylcarbamoyl)-2-(p-tolyl)furo[2,3-b]pyridin-6-yl)methylsulfonamido)ethyl)benzoic acid] | 8 nM
21 | CNC(=O)c1c(-c2ccc(C)cc2)oc2nc(N(CCC[C@H](COC)C(=O)N3C(=O)OC[C@@H]3Cc3ccccc3)S(C)(=O)=O)c(I)cc12 [Example 47.71] | 26 nM
22 | CNC(=O)c1c(-c2ccc(F)cc2)oc2nc3c(cc12)CCCCN3S(C)(=O)=O [Example 39, 2-(4-Fluoro-phenyl)-9-methanesulfonyl-6,7,8,9-tetrahydro-5H-1-oxa-9,10-diaza-cyclohepta[f]indene-3-carboxylic acid methylamide] | 161 nM
23 | CCNC(=O)c1c(-c2ccc(F)cc2)oc2nc(N(C)S(C)(=O)=O)c(C3CC3)cc12 [Example 2.7, 5-cyclopropyl-N-ethyl-2-(4-fluorophenyl)-6-(N-methylmethylsulfonamido)furo[2,3-b]pyridine-3-carboxamide] | 44 nM
24 | CCc1cc2c(C(=O)NC)c(-c3ccc(F)cc3)oc2nc1N(CCCCC(=O)OC)S(C)(=O)=O [Example 21, methyl 5-(N-(5-ethyl-2-(4-fluorophenyl)-3-(methylcarbamoyl)furo[2,3-b]pyridin-6-yl)methylsulfonamido)pentanoate] | 10 nM
25 | CNC(=O)c1c(-c2ccc(C)cc2)oc2nc(N(CCCCC(=O)O)S(C)(=O)=O)c(CCO)cc12 [Example 29.999997, 5-(N-(5-(2-hydroxyethyl)-3-(methylcarbamoyl)-2-p-tolylfuro[2,3-b]pyridin-6-yl)methylsulfonamido) pentanoic acid] | 48 nM
26 | CCc1cc2c(C(=O)NC)c(-c3ccc(F)cc3)oc2nc1N(CCC1CCN(C(=O)OC(C)(C)C)CC1)S(C)(=O)=O [Example 21.995, tert-butyl 4-(2-(N-(5-ethyl-2-(4-fluorophenyl)-3-(methylcarbamoyl)furo[2,3-b]pyridin-6-yl)methylsulfonamido)ethyl)piperidine-1-carboxylate] | 155 nM
27 | CNC(=O)c1c(-c2ccc(C)cc2)oc2nc(N(CCC[C@H](C)C(=O)O)S(C)(=O)=O)c(C3CC3)cc12 [Example 47, (S)-5-(N-(5-cyclopropyl-3-(methylcarbamoyl)-2-p-tolylfuro[2,3-b]pyridin-6-yl)methylsulfonamido)-2-methylpentanoic acid] | 2 nM
28 | CNC(=O)c1c(-c2ccc(F)cc2)oc2nc(N(CCCC(O)CO)S(C)(=O)=O)c(I)cc12 (centres unmarked) [Example 18.93, 6-(N-(4,5-dihydroxypentyl)methylsulfonamido)-2-(4-fluorophenyl)-5-iodo-N-methylfuro[2,3-b]pyridine-3-carboxamide] | 108 nM
29 | CNC(=O)c1c(-c2ccc(F)cc2)oc2nc(N(CCc3ccccc3OC)S(C)(=O)=O)c(I)cc12 [Example 18.6, 2-(4-fluorophenyl)-5-iodo-6-(N-(2-methoxyphenethyl)methylsulfonamido)-N-methylfuro[2,3-b]pyridine-3-carboxamide] | 573 nM
